Columns and labels:
OF1 mice = assay: maximal electroshock test (MES Test); type: in vivo, mouse; conditions: p.o.; for MES-Test (1 h, po) ED50: pre-treatment time 1 h
Procedure: Compounds of the invention were tested in OF1 mice using the maximal electroshock test (MES Test) described in detail by Schmutz et al., Naunyn-Schmiedeberg's Arch Pharmacol 1990, 342, 61-66. Briefly, generalized tonic-clonic convulsions of the hind extremities were induced by passing electrical current through temporal electrodes (50 Hz, 18 mA, 0.2 s). […] 30 mg/kg carbamazepine was used as a positive control; mice were classified as protected by a compound If the duration of the seizure lasted only 3 second or less. Five mice were used for each treatment condition and the percentage of protected mice was used as readout (i.e. a compound could give 0%, 20%, 40%, 60%, 80% or 100% protection). […]
ED50 values (ED: effective dose) were calculated using GraphPad Prism, v4.02.

mouse = assay: Oral bioavailability: in vivo orally active (audiogenic mouse test and/or MES test)
Procedure: The oral bioavailability was tested using the audiogenic mouse test (Audiogenic seizures, R. L. Collins; Chapter 14, pages: 347-372. In: Experimental Models of Epilepsy; By: Pupura, Penry, Tower, Woodbury, Walter, Raven Press, New York, 1972. Standard Book Number: 0-911216-26-X) and/or the MES test.

## CS(=O)(=O)Nn1c(=O)[nH]c2cc(C(F)(F)F)c(C3CCCO3)cc2c1=O [B-2 (R), N-[2,4-Dioxo-6-(tetrahydro-furan-2-yl)-7-trifluoromethyl-1,4-dihydro-2H-quinazolin-3-yl]-methanesulfonamide]
OF1 mice
  MES-Test (1 h, po) ED50: 12.8 mg/kg

## CS(=O)(=O)Nn1c(=O)[nH]c2cc(C(F)(F)F)c(C3CCCO3)cc2c1=O [B-2 (S), N-[2,4-Dioxo-6-(tetrahydro-furan-2-yl)-7-trifluoromethyl-1,4-dihydro-2H-quinazolin-3-yl]-methanesulfonamide]
OF1 mice
  MES-Test (1 h, po) ED50: 33.2 mg/kg

## CC(O)c1cc2c(=O)n(NS(C)(=O)=O)c(=O)[nH]c2cc1C(F)(F)F (stereo not drawn) [Compound A-1, N-[6-(1-Hydroxy-ethyl)-2,4-dioxo-7-trifluoromethyl-1,4-dihydro-2H-quinazolin-3-yl]-methanesulfonamide]
mouse
  In vivo orally active: Yes

## COC(C)c1cc2c(=O)n(NS(C)(=O)=O)c(=O)[nH]c2cc1C(F)(F)F (stereo not drawn) [Compound A-2, N-[6-(1-Methoxy-ethyl)-2,4-dioxo-7-trifluoromethyl-1,4-dihydro-2H-quinazolin-3-yl]-methanesulfonamide]
mouse
  In vivo orally active: Yes

## CCC(O)c1cc2c(=O)n(NS(C)(=O)=O)c(=O)[nH]c2cc1C(F)(F)F (stereo not drawn) [Compound A-3, N-[6-(1-Hydroxy-propyl)-2,4-dioxo-7-trifluoromethyl-1,4-dihydro-2H-quinazolin-3-yl]-methanesulfonamide]
mouse
  In vivo orally active: Yes

## CC(C)OC(C)c1cc2c(=O)n(NS(C)(=O)=O)c(=O)[nH]c2cc1C(F)(F)F (stereo not drawn) [Compound A-4, N-[6-(1-Isopropoxy-ethyl)-2,4-dioxo-7-trifluoromethyl-1,4-dihydro-2H-quinazolin-3-yl]-methanesulfonamide]
mouse
  In vivo orally active: Yes

## CCOC(C)c1cc2c(=O)n(NS(C)(=O)=O)c(=O)[nH]c2cc1C(F)(F)F (stereo not drawn) [Compound A-5, N-[6-(1-Ethoxy-ethyl)-2,4-dioxo-7-trifluoromethyl-1,4-dihydro-2H-quinazolin-3-yl]methanesulfonamide]
mouse
  In vivo orally active: yes

## CCCOC(CC)c1cc2c(=O)n(NS(C)(=O)=O)c(=O)[nH]c2cc1C(F)(F)F (stereo not drawn) [Compound A-6, N-[2,4-Dioxo-6-(1-propoxy-propyl)-7-trifluoromethyl-1,4-dihydro-2H-quinazolin-3-yl]-methanesulfonamide]
mouse
  In vivo orally active: Yes

## CCC(OC(C)C)c1cc2c(=O)n(NS(C)(=O)=O)c(=O)[nH]c2cc1C(F)(F)F (stereo not drawn) [Compound A-7, N-[6-(1-isopropoxy-propyl)-2,4-dioxo-7-trifluoromethyl-1,4-dihydro-2H-quinazolin-3-yl]-methanesulfonamide]
mouse
  In vivo orally active: Yes

## CCOC(CC)c1cc2c(=O)n(NS(C)(=O)=O)c(=O)[nH]c2cc1C(F)(F)F (stereo not drawn) [Compound A-13, N-[6-(1-Ethoxy-propyl)-2,4-dioxo-7-trifluoromethyl-1,4-dihydro-2H-quinazolin-3-yl]-methanesulfonamide]
mouse
  In vivo orally active: Yes

## CC(OC1CCCC1)c1cc2c(=O)n(NS(C)(=O)=O)c(=O)[nH]c2cc1C(F)(F)F (stereo not drawn) [Compound A-14, N-[6-(1-Cyclopentyloxy-ethyl)-2,4-dioxo-7-trifluoromethyl-1,4-dihydro-2H-quinazolin-3-yl]-methanesulfonamide]
mouse
  In vivo orally active: yes

## CCCC(O)c1cc2c(=O)n(NS(C)(=O)=O)c(=O)[nH]c2cc1C(F)(F)F (stereo not drawn) [Compound A-15, N-[6-(1-Hydroxy-butyl)-2,4-dioxo-7-trifluoromethyl-1,4-dihydro-2H-quinazolin-3-yl]-methanesulfonamide]
mouse
  In vivo orally active: Yes

## COCCC(O)c1cc2c(=O)n(NS(C)(=O)=O)c(=O)[nH]c2cc1C(F)(F)F (stereo not drawn) [Compound A-18, N-[6-(1-Hydroxy-3-methoxy-propyl)-2,4-dioxo-7-trifluoromethyl-1,4-dihydro-2H-quinazolin-3-yl]-methanesulfonamide]
mouse
  In vivo orally active: Yes

## CS(=O)(=O)Nn1c(=O)[nH]c2cc(C(F)(F)F)c(C3CCCO3)cc2c1=O (stereo not drawn) [Compound B-2, N-[2,4-Dioxo-6-(tetrahydro-furan-2-yl)-7-trifluoromethyl-1,4-dihydro-2H-quinazolin-3-yl]-methanesulfonamide]
mouse
  In vivo orally active: Yes

## COCCn1nccc1-c1cc2c(=O)n(NS(C)(=O)=O)c(=O)[nH]c2cc1C(C)C [Compound C-1, N-{7-Isopropyl-6-[2-(2-methoxy-ethyl)-2H-pyrazol-3-yl]-2,4-dioxo-1,4-dihydro-2H-quinazolin-3-yl}-methanesulfonamide]
OF1 mice; @ 25 (mg/kg)
  MES-Test (1 h, po) protection: 40% @ 25
mouse
  In vivo orally active: yes

## CC(C)n1nccc1-c1cc2c(=O)n(NS(C)(=O)=O)c(=O)[nH]c2cc1C(F)(F)F [Compound C-2, N-[6-(2-Isopropyl-2H-pyrazol-3-yl)-2,4-dioxo-7-trifluoromethyl-1,4-dihydro-2H-quinazolin-3-yl]-methanesulfonamide]
mouse
  In vivo orally active: Yes

## CC(C)n1nccc1-c1cc2c(=O)n(NS(C)(=O)=O)c(=O)[nH]c2cc1CF [Compound C-3, N-[7-Fluoromethyl-6-(2-isopropyl-2H-pyrazol-3-yl)-2,4-dioxo-1,4-dihydro-2H-quinazolin-3-yl]-methanesulfonamide]
mouse
  In vivo orally active: Yes

## COCCn1nccc1-c1cc2c(=O)n(NS(C)(=O)=O)c(=O)[nH]c2cc1C(F)(F)F [Compound C-4, N-{6-[2-(2-Methoxy-ethyl)-2H-pyrazol-3-yl]-2,4-dioxo-7-trifluoromethyl-1,4-dihydro-2H-quinazolin-3-yl}-methanesulfonamide]
mouse
  In vivo orally active: Yes

## CS(=O)(=O)Nn1c(=O)[nH]c2cc(C(F)(F)F)c(-c3ccnn3O)cc2c1=O [Compound C-5, N-[6-(2-Hydroxy-2H-pyrazol-3-yl)-2,4-dioxo-7-trifluoromethyl-1,4-dihydro-2H-quinazolin-3-yl]-methanesulfonamide]
mouse
  In vivo orally active: Yes

## CCc1cc2[nH]c(=O)n(NS(C)(=O)=O)c(=O)c2cc1-c1ccnn1C(C)C [Compound C-6, N-[7-Ethyl-6-(2-isopropyl-2H-pyrazol-3-yl)-2,4-dioxo-1,4-dihydro-2H-quinazolin-3-yl]-methanesulfonamide]
OF1 mice; @ 50 (mg/kg)
  MES-Test (1 h, po) protection: 20% @ 50
mouse
  In vivo orally active: yes

## CC(C)c1cc2[nH]c(=O)n(NS(C)(=O)=O)c(=O)c2cc1-c1ccnn1C(C)C [Compound C-8, N-[7-Isopropyl-6-(2-isopropyl-2H-pyrazol-3-yl)-2,4-dioxo-1,4-dihydro-2H-quinazolin-3-yl]-methanesulfonamide]
OF1 mice; @ 50 (mg/kg)
  MES-Test (1 h, po) protection: 40% @ 50
mouse
  In vivo orally active: yes

## Cn1nccc1-c1cc2c(=O)n(NS(C)(=O)=O)c(=O)[nH]c2cc1C(F)F [Compound C-9, N-[7-Difluoromethyl-6-(2-methyl-2H-pyrazol-3-yl)-2,4-dioxo-1,4-dihydro-2H-quinazolin-3-yl]-methanesulfonamide]
mouse
  In vivo orally active: Yes

## CC(C)n1nccc1-c1cc2c(=O)n(NS(C)(=O)=O)c(=O)[nH]c2cc1C(F)F [Compound C-10, N-[7-Difluoromethyl-6-(2-isopropyl-2H-pyrazol-3-yl)-2,4-dioxo-1,4-dihydro-2H-quinazolin-3-yl]-methanesulfonamide]
mouse
  In vivo orally active: Yes

## CCc1cc2[nH]c(=O)n(NS(C)(=O)=O)c(=O)c2cc1-c1ccnn1C [Compound C-11, N-[7-Ethyl-6-(2-methyl-2H-pyrazol-3-yl)-2,4-dioxo-1,4-dihydro-2H-quinazolin-3-yl]-methanesulfonamide]
mouse
  In vivo orally active: Yes

## CCc1cc2[nH]c(=O)n(NS(C)(=O)=O)c(=O)c2cc1-c1ccnn1CC [Compound C-12, N-[7-Ethyl-6-(2-ethyl-2H-pyrazol-3-yl)-2,4-dioxo-1,4-dihydro-2H-quinazolin-3-yl]-methanesulfonamide]
mouse
  In vivo orally active: Yes

## Cn1nccc1-c1cc2c(=O)n(NS(C)(=O)=O)c(=O)[nH]c2cc1C(C)(F)F [Compound C-15, N-[7-(1,1-difluoro-ethyl)-6-(2-methyl-2H-pyrazol-3-yl)-2,4-dioxo-1,4-dihydro-2H-quinazolin-3-yl]-methanesulfonamide]
OF1 mice; @ 20 (mg/kg)
  MES-Test (1 h, po) protection: 80% @ 20
mouse
  In vivo orally active: Yes

## CC(C)n1nccc1-c1cc2c(=O)n(NS(C)(=O)=O)c(=O)[nH]c2cc1C(C)(F)F [Compound C-16, N-[7-(1,1-difluoro-ethyl)-6-(2-isopropyl-2H-pyrazol-3-yl)-2,4-dioxo-1,4-dihydro-2H-quinazolin-3-yl]-methanesulfonamide]
mouse
  In vivo orally active: Yes

## CC(F)c1cc2[nH]c(=O)n(NS(C)(=O)=O)c(=O)c2cc1-c1ccnn1C(C)C (stereo not drawn) [Compound C-17, N-[7-(1-fluoro-ethyl)-6-(2-isopropyl-2H-pyrazol-3-yl)-2,4-dioxo-1,4-dihydro-2H-quinazolin-3-yl]-methanesulfonamide]
mouse
  In vivo orally active: Yes

## Cn1nccc1-c1cc2c(=O)n(NS(C)(=O)=O)c(=O)[nH]c2cc1C(F)(F)F [Compound C-18, N-[6-(2-Methyl-2H-pyrazol-3-yl)-2,4-dioxo-7-trifluoromethyl-1,4-dihydro-2H-quinazolin-3-yl]-methanesulfonamide]
mouse
  In vivo orally active: Yes

— patent publication US20140163050A1, “Use of 1H-quinazoline-2,4-diones” (priority 2011, published 2014)
